Experimental data from patent US20040121316A1 (priority 2002, published 2004).
Like-named read-outs stand apart in the source and are kept apart here. Peptide text beside a SMILES is read from it. * marks the point of attachment. MeOSuc = COC(=O)CCC(=O)*; CH2Cl = ClC*

How the values were obtained:
HIV-1 protease 84V90M = target: T1, HIV-1 protease 84V90M (Human immunodeficiency virus type 1 group M subtype B, UniProt P04585, I572V/L578M); test: Enzymatic assay, IC50 against 84V90M mutant protease; assay type: biochemical
T1 construct: synthetic hexapeptide substrate cleavage by HIV-1 protease

WT HIV-1 = test: microbe, parasite or virus in culture; assay type: cell-based
[1] = tested on: recombinant HIV-1 10I 84V 71V 73S 90M; test: microbe, parasite or virus in culture; assay type: cell-based; settings: for EC50: Human immunodeficiency virus 1, MT4, read-out: Cell-based assay (MT-4) EC50/nM 84V 90M
[2] = tested on: recombinant HIV-1 30N 50S 82I 88D; test: microbe, parasite or virus in culture; assay type: cell-based; settings: for EC50: Human immunodeficiency virus 1, MT4, read-out: Cell-based assay (MT-4) EC50/nM 30N 82I 88D
[3] = tested on: recombinant HIV-1 10I 48V 54V 82A; test: microbe, parasite or virus in culture; assay type: cell-based; settings: for EC50: Human immunodeficiency virus 1, MT4, read-out: Cell-based assay (MT-4) EC50/nM 48V 54V 82A
[4] = target: porcine liver carboxylesterase (PLCE) (Sus scrofa, UniProt Q29550); assay type: biochemical
[5] = target: human leukocyte elastase (huLE) (Homo sapiens, UniProt P08246); test: biochemical; settings: IC50 (μM) huLE
GS-7340 Ester Hydrolase = GS-7340 Ester Hydrolase (Homo sapiens, UniProt P10619); assay type: biochemical
MT-2 cells [6] = tested on: MT-2 cells
MT-2 cells [7] = tested on: MT-2 cells; remark: listed apart in the source
[8] = tested on: MT-2 cells, stimulated and quiescent PBMC
[9] = tested on: recombinant HIV-1 strains with resistance mutations in the protease gene; test: Cross-Resistance Profile Assay, whole panel; assay type: cell-based
[10] = not given; remark: listed apart in the source
[11] = tested on: PBMC in human whole blood
[12] = not given; remark: listed apart in the source
[13] = tested on: recombinant HIV-1 46I 84A; test: Cross-Resistance Profile Assay; assay type: cell-based; settings: protease mutations 46I 84A
[14] = tested on: recombinant HIV-1 10R 46I 82T 84V; test: Cross-Resistance Profile Assay; assay type: cell-based; settings: protease mutations 10R 46I 82T 84V
[15] = tested on: recombinant HIV-1 10F 46I 71V 82T 90M; test: Cross-Resistance Profile Assay; assay type: cell-based; settings: protease mutations 10F 46I 71V 82T 90M
[16] = tested on: recombinant HIV-1 48V 54V 71V 82S; test: microbe, parasite or virus in culture; assay type: cell-based; settings: for Fold Change in EC50 Relative to WT HIV-1: protease mutations 48V 54V 71V 82S; for EC50: Human immunodeficiency virus 1, MT4, read-out: Cell-based assay (MT-4) EC50/nM 48V 54V 82S
[17] = tested on: recombinant HIV-1 10I 48V 71V 82A 90M; test: microbe, parasite or virus in culture; assay type: cell-based; settings: for Fold Change in EC50 Relative to WT HIV-1: protease mutations 10I 48V 71V 82A 90M; for EC50: Human immunodeficiency virus 1, MT4, read-out: Cell-based assay (MT-4) EC50/nM 48V 82A 90M
[18] = tested on: wild-type HIV-1 strain IIIB; test: microbe, parasite or virus in culture; assay type: cell-based; settings: Human immunodeficiency virus 1, IIIB
mutant HIV-1 I84V/L90M = test: Resistance Evaluation, I84V/L90M fold change; assay type: cell-based; settings: EC50 of mutant I84V/L90M relative to wild type; class symbols
[19] = target: T2, recombinant HIV-1 protease (Human immunodeficiency virus type 1 group M subtype B, UniProt P04585); test: biochemical; settings: Ki
T2 construct: Enzyme: recombinant HIV-1 protease expressed in E.Coli; purchased Bachem California, Inc. H-9040; host or cells: E. coli

[20] = tested on: recombinant HIV-1 46I 47V 50V; test: microbe, parasite or virus in culture; assay type: cell-based; settings: for Fold Change in EC50 Relative to WT HIV-1: protease mutations 46I 47V 50V; for EC50: Human immunodeficiency virus 1, MT4, read-out: Cell-based assay (MT-4) EC50/nM 47I 50V
[21] = tested on: recombinant HIV-1 54V 71V 82S; test: Cross-Resistance Profile Assay; assay type: cell-based; settings: protease mutations 54V 71V 82S
[22] = Human immunodeficiency virus 1, MT4, read-out: Cell-based assay (MT-4) EC50/nM WT
[23] = XTT-based cytopathic assay, read-out: EC50 WT HIV-1
[24] = resistance = 5-fold and higher change in EC50 of the mutant relative to wild-type, 11 mutant viruses

Chain of GS-7340 Ester Hydrolase (P10619 29-480): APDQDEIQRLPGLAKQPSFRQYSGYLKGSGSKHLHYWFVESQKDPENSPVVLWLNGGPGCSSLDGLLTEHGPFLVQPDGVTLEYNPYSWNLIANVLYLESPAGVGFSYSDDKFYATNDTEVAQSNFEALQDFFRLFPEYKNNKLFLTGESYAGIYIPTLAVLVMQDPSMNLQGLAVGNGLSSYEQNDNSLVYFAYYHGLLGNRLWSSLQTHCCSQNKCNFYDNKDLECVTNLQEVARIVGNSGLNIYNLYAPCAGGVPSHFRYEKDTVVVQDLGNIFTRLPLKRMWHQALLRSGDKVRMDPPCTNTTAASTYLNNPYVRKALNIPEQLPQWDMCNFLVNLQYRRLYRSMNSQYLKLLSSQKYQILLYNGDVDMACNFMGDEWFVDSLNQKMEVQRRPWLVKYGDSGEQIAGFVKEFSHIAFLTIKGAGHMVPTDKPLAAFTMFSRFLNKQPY
Chain of porcine liver carboxylesterase (PLCE) (Q29550 whole entry): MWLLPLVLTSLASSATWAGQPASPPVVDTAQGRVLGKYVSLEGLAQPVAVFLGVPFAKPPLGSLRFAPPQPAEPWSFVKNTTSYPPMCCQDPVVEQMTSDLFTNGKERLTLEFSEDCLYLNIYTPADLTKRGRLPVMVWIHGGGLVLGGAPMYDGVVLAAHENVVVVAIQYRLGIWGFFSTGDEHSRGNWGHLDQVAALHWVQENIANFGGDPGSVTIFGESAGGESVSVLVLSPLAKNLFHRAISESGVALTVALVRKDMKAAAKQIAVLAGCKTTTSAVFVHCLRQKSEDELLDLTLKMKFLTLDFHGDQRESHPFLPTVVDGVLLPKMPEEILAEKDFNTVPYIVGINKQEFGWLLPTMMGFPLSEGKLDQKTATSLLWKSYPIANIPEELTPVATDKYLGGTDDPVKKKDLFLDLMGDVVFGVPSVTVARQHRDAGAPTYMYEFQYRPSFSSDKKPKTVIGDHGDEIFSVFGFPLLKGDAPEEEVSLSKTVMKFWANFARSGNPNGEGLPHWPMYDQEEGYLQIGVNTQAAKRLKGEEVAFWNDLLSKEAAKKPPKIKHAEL
Chain of human leukocyte elastase (huLE) (P08246 30-267): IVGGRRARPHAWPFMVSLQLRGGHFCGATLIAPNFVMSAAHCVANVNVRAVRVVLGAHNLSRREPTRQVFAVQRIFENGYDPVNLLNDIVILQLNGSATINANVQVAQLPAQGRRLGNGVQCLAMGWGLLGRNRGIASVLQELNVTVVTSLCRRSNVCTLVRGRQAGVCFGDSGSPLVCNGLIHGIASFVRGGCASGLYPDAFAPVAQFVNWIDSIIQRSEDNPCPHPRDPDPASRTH

O=C1N(Cc2ccccc2)C(Cc2ccccc2)C(O)C(O)C(Cc2ccc(OCP(=O)(OCc3ccccc3)OCc3ccccc3)cc2)N1Cc1ccccc1 (centres unmarked)
IC50 (HIV-1 protease 84V90M): 0.158 µM
EC50 (WT HIV-1; [22]): 1770 nM
EC50 [1]: > 6000 nM
EC50 [2]: 3140 nM
EC50 [3]: > 6000 nM

O=C1N(Cc2ccccc2)C(Cc2ccccc2)C(O)C(O)C(Cc2ccc(OCP(=O)(O)O)cc2)N1Cc1ccccc1 (centres unmarked)
IC50 (HIV-1 protease 84V90M): 0.21 µM
EC50 (WT HIV-1; [22]): > 6000 nM
EC50 [1]: > 6000 nM

O=c1oc(Cl)c(Cl)c2ccccc12 [3,4-dichloroisocoumarin]
IC50 [4]: 250 µM
IC50 ([4]; read-out: IC50 (μM) PLCE): 250 µM
IC50 [5]: 3 µM
Relative Activity (%) (GS-7340 Ester Hydrolase; 1 µM): 100%
Relative Activity (%) (GS-7340 Ester Hydrolase; 10 µM): 25%
Relative Activity (%) (GS-7340 Ester Hydrolase; 100 µM): 5%
Relative Activity (%) (GS-7340 Ester Hydrolase; 1000 µM): <2%

COc1ccc(S(=O)(=O)N(CC(C)C)C[C@@H](O)[C@H](Cc2ccc(P(=O)(O)O)cc2)NC(=O)O[C@H]2CO[C@H]3OCC[C@H]32)cc1 [Compound 27]
CC50 (MT-2 cells [6]): > 100 µM

CCOP(=O)(OCC)c1ccc(CC(NC(=O)OC2COC3OCCC23)C(O)CN(CC(C)C)S(=O)(=O)c2ccc(OC)cc2)cc1 (centres unmarked) [Compound 28]
CC50 (MT-2 cells [6]): 70 µM

CCCCOC(=O)C(C)NP(=O)(COc1ccc(CC(NC(=O)OC2COC3OCCC23)C(O)CN(CC(C)C)S(=O)(=O)c2ccc(OC)cc2)cc1)NC(C)C(=O)OCCCC (centres unmarked) [GS-16503]
Metabolism (conversion to acid metabolites), dependence on concentration (MT-2 cells [7]): concentration-dependent
increase in conversion to acid metabolites at 1 μM vs. 10 μM (MT-2 cells [7]): 3 fold
EC50 (WT HIV-1; [23]): 16 nM
Dog Plasma T1/2: 6.13 h
Dog Plasma T1/2, min: 6.13 h
Cell-Associated PI, Prodrug (quiescent PBMC): 0 pmol/mln cells
composition of metabolites in PBMC (quiescent PBMC): equimolar mixture of metabolite X and GS-8373
intracellular metabolites formed [8]: Metabolite X and GS-8373
Total No. of Resistant Viruses [9, 24]: 0
PBMC Extract T1/2 [10]: 0.033 h
PBMC Extract T1/2, min [10]: 0.033 h
Intracellular Acid Metabolite Concentration [11]: 279 ± 47 µM
Intracellular Concentration, Acid Metabolite [11]: 279 ± 47 µM
Intracellular Concentration, Prodrug [11]: 61 ± 40 µM
Intracellular Prodrug [11]: 61 ± 40 µM
Intracellular Prodrug and Metabolites Concentration, Total [11]: 340 ± 35 µM
Intracellular Prodrug and Metabolites Total [11]: 340 ± 35 µM
Major Intracellular Metabolites [11]: X, GS-8373
Human Serum T1/2 [12]: >>400 min
Human Serum T1/2, min [12]: >>400 min

CCOC(=O)C(C)NP(=O)(COc1ccc(CC(NC(=O)OC2COC3OCCC23)C(O)CN(CC(C)C)S(=O)(=O)c2ccc(OC)cc2)cc1)Oc1ccccc1 (centres unmarked) [GS-16571]
EC50 (WT HIV-1; [23]): 22 nM
Dog Plasma T1/2: 2.1 h
Dog Plasma T1/2, min: 2.1 h
intracellular metabolites formed [8]: Metabolite X and GS-8373
Total No. of Resistant Viruses [9, 24]: 0
PBMC Extract T1/2 [10]: 0.817 h
PBMC Extract T1/2, min [10]: 0.817 h
Intracellular Acid Metabolite Concentration [11]: 319 ± 112 µM
Intracellular Concentration, Acid Metabolite [11]: 319 ± 112 µM
Intracellular Concentration, Prodrug [11]: 137 ± 62 µM
Intracellular Prodrug [11]: 137 ± 62 µM
Intracellular Prodrug and Metabolites Concentration, Total [11]: 432 ± 208 µM
Intracellular Prodrug and Metabolites Total [11]: 432 ± 208 µM
Major Intracellular Metabolites [11]: X, GS-8373
Human Serum T1/2 [12]: 110 min
Human Serum T1/2, min [12]: 110 min

CCOC(=O)C(C)OP(=O)(COc1ccc(C[C@H](NC(=O)O[C@H]2CO[C@H]3OCC[C@H]32)[C@H](O)CN(CC(C)C)S(=O)(=O)c2ccc(OC)cc2)cc1)Oc1ccccc1 (some centres unmarked) [GS-17394]
Metabolism (conversion to acid metabolites), dependence on concentration (MT-2 cells [7]): independent
Dog Plasma T1/2: 2.4 h
Dog Plasma T1/2, min: 2.4 h
Cell-Associated PI, Prodrug (quiescent PBMC): 0 pmol/mln cells
composition of metabolites in PBMC (quiescent PBMC): only metabolite LX
intracellular metabolites formed [8]: Metabolite LX
PBMC Extract T1/2 [10]: 0.25 h
PBMC Extract T1/2, min [10]: 0.25 h
Intracellular Acid Metabolite Concentration [11]: 629 ± 303 µM
Intracellular Concentration, Acid Metabolite [11]: 629 ± 303 µM
Intracellular Concentration, Prodrug [11]: 69 ± 85 µM
Intracellular Prodrug [11]: 69 ± 85 µM
Intracellular Prodrug and Metabolites Concentration, Total [11]: 698 ± 301 µM
Intracellular Prodrug and Metabolites Total [11]: 698 ± 301 µM
Human Serum T1/2 [12]: 49 min
Human Serum T1/2, min [12]: 49 min

Cc1cccc(C)c1OCC(=O)N[C@@H](Cc1ccccc1)[C@@H](O)C[C@H](Cc1ccccc1)NC(=O)[C@H](C(C)C)N1CCCNC1=O [Lopinavir, reference compound]
Fold Change in EC50 Relative to WT HIV-1 [13]: 9 fold
Fold Change in EC50 Relative to WT HIV-1 [14]: 11 fold
Fold Change in EC50 Relative to WT HIV-1 [15]: 7.5 fold
Fold Change in EC50 Relative to WT HIV-1 [16]: 60 fold
Fold Change in EC50 Relative to WT HIV-1 [17]: 4.5 fold
Fold Change in EC50 Relative to WT HIV-1 ([1]; protease mutations 10I 84V 71V 73S 90M): 11 fold
EC50 [18]: < 0.05 µM
Total No. of Resistant Viruses ([9]; {}): 6
I84V/L90M fold change (mutant HIV-1 I84V/L90M): ++ (>10 to ≦30)
Ki [19]: 0.01 to 0.1 nM
Fold Change in EC50 Relative to WT HIV-1 [20]: 19 fold

COC(=O)CCC(=O)N[C@@H](C)C(=O)N[C@@H](C)C(=O)N1CCC[C@H]1C(=O)N[C@@H](C)C(=O)CCl [MeOSuC-Ala-Ala-Pro-Ala-CMK] (MeOSuc-AAPA-CH2Cl)
IC50 ([4]; read-out: IC50 (μM) PLCE): > 1000 µM

COC(=O)CCC(=O)N[C@@H](C)C(=O)N[C@@H](C)C(=O)N1CCC[C@H]1C(=O)N[C@H](C(=O)CCl)C(C)C [MeOSuc-Ala-Ala-Pro-Val-CMK] (MeOSuc-AAPV-CH2Cl)
IC50 ([4]; read-out: IC50 (μM) PLCE): > 1000 µM

CCOP(=O)(COc1ccc(CC2C(O)C(O)C(Cc3ccc(OC)cc3)N(Cc3cccc(N)c3)C(=O)N2Cc2cccc(N)c2)cc1)OCC (centres unmarked) [OCH3/Ph-mNH2/OCH2PO3Et2]
IC50 (HIV-1 protease 84V90M): 0.056 µM
EC50 [16]: 117 nM
EC50 (WT HIV-1; [22]): 63 nM
EC50 [17]: 102 nM
EC50 [1]: 535 nM
EC50 [2]: 18 nM
EC50 [20]: 36 nM
EC50 [3]: 202 nM

CCOP(=O)(CCNC(=O)Oc1ccc(CC2C(O)C(O)C(Cc3ccc(OC)cc3)N(Cc3ccc(O)cc3)C(=O)N2Cc2ccc(O)cc2)cc1)OCC (centres unmarked) [OCH3/Ph-pOH/OCONH(CH2)2PO3Et2]
IC50 (HIV-1 protease 84V90M): 0.049 µM
EC50 [16]: 51 nM
EC50 (WT HIV-1; [22]): 33 nM
EC50 [17]: 55 nM
EC50 [1]: 495 nM
EC50 [2]: 31 nM
EC50 [20]: 223 nM
EC50 [3]: 74 nM

CCC[C@@]1(CCc2ccccc2)CC(O)=C([C@H](CC)c2cccc(NS(=O)(=O)c3ccc(C(F)(F)F)cn3)c2)C(=O)O1 [Tipranavir, reference compound]
Fold Change in EC50 Relative to WT HIV-1 [13]: 1 fold
Fold Change in EC50 Relative to WT HIV-1 [14]: 5 fold
Fold Change in EC50 Relative to WT HIV-1 [15]: 3 fold
Fold Change in EC50 Relative to WT HIV-1 [16]: 2 fold
Fold Change in EC50 Relative to WT HIV-1 [17]: 0.3 fold
Fold Change in EC50 Relative to WT HIV-1 [21]: 3.5 fold
Fold Change in EC50 Relative to WT HIV-1 ([2]; protease mutations 30N 50S 82I 88D): 0.5 fold
EC50 [18]: 0.05 to 0.5 µM
Total No. of Resistant Viruses ([9]; {}): 1
I84V/L90M fold change (mutant HIV-1 I84V/L90M): + (>3 to ≦10)
Fold Change in EC50 Relative to WT HIV-1 [20]: 0.5 fold
Fold Change in EC50 Relative to WT HIV-1 ([3]; protease mutations 10I 48V 54V 82A): 0.4 fold
